Test results: ChEMBL document CHEMBL1156829 (Proc Natl Acad Sci U S A, 2008)
pEC50: −log10 of the molar value.

Assays:
[1] = NOVARTIS: Cytotoxicity against human hepatocellular carcinoma cell line (Huh7); assay type: toxicity, cell-based, Huh-7; details: Huh7 cells (hepatocellular carcinoma cell line)
[2] = system: Plasmodium falciparum; assay: NOVARTIS: Inhibition of Plasmodium falciparum 3D7 (drug-susceptible) proliferation in erythrocyte-based infection assay; assay type: functional, organism-based; details: Plasmodium falciparum, 3D7
[3] = system: Plasmodium falciparum; assay: NOVARTIS: Inhibition of Plasmodium falciparum W2 (drug-resistant) proliferation in erythrocyte-based infection assay; assay type: functional, organism-based; details: Plasmodium falciparum, W2; read-out: EC50

Row | SMILES | CC50 [1] [µM] | pEC50 [2] | pEC50 [3]
1 | CCCCN(C)Cc1cc(-c2cccc(OC)n2)ccc1O | > 100 | 6.06 | 7.04
2 | CCN1CCC(NC2CCCc3c2[nH]c2ccc([N+](=O)[O-])cc32)CC1 (stereo not drawn) | 14.5 | 6.30 | 6.47
3 | COc1ccc(NS(=O)(=O)c2cccc(C(=O)Nc3ccccc3[N+](=O)[O-])c2)cc1 | 44.5 | < 4.90 | 5.38
4 | CCOC(=O)C1=C(C)NC2=C(C(=O)CC(c3ccc(OC)c(OC)c3)C2)C1c1ccccc1OC (stereo not drawn) | > 100 | 7.13 | 7.31
5 | CC(=O)N1CCN(C(=O)CCCSc2nnc(-c3ccc(C)cc3)n2-c2cccc(C)c2)CC1C (stereo not drawn) | > 10 | < 6.04 | < 6.20
6 | Cc1cc(Nc2cc3ccccc3cc2O)n2ncnc2n1 | 1.75 | 5.87 | 5.89
7 | COc1cc2c(cc1C=C(C#N)c1cccc(C)c1)OCO2 | > 100 | < 5.01 | 5.88
8 | COc1cc(OC)c(N(C)C(=O)c2cc3c(s2)-c2ccccc2S(=O)(=O)C3)cc1Cl | > 55.6 | 6.95 | 6.75
9 | CCN1C=C(c2ccc(C)cc2)S/C1=C\c1sc2ccccc2[n+]1C | 18.9 | 6.44 | 6.03
10 | Cc1ccc(CN=C(N)Nc2nc(C)cc(C)n2)cc1 | 11.2 | 6.19 | 6.22
11 | O=C1NC(=S)N/C1=C\C=C\c1ccc([N+](=O)[O-])o1 | > 10 | < 6.06 | 5.66
12 | CN1c2ccccc2N(C)C1c1ccc2c(c1)OCO2 | > 10 | 5.95 | < 5.85
13 | c1csc(CN2CCc3nc(N4CCCCC4)sc3C2)c1 | > 10 | 5.90 | 6.35
14 | CC(=O)Nn1c(C(C)(C)C)nc2ccccc2c1=O | > 10 | < 5.83 | 5.61
15 | O=C(Cn1c2ccccc2c(=O)c2cc(Cl)ccc21)Nc1cccc(C(F)(F)F)c1 | > 10 | < 5.87 | 5.78
16 | c1ccc2c(c1)CSc1sccc1C2=C1CCNCC1 | 13.1 | 7.06 | 5.36
17 | CNC1CC2OC(C)(C1OC)n1c3ccccc3c3c4c(c5c6ccccc6n2c5c31)C(=O)NC4O (stereo not drawn) | […] | 6.72 | < 6.71
18 | CCC(=O)NCc1nnc(SCc2cccc(C(F)(F)F)c2)n1-c1cccc(OC)c1 | > 100 | < 4.90 | 5.25

Row | SMILES | CC50 [1] [µM] | pEC50 [2] | pEC50 [3]
19 | COC(=O)c1c(OCc2ccc(F)cc2)cc(=O)n2c1CCN(Cc1ccccc1)CC2 | > 100 | 5.40 | 6.27
20 | CC(/C=C/C(=O)NO)=C\[C@@H](C)C(=O)c1ccc(N(C)C)cc1 [TRICHOSTATIN] | 1.59 | 6.70 | 6.77
21 | OCCSc1nc(-c2ccccc2)nc2ccc(F)cc12 | > 10 | < 5.90 | < 6.74
22 | Cc1ccc2cc3c(N)c4c(C)ccc(C)c4nc3nc2c1 | > 100 | 6.37 | 6.51
23 | O=C(NN=Cc1ccc(O)cc1O)c1ccncc1 | > 100 | 5.32 | 5.73
24 | CCCCN(CCCC)S(=O)(=O)c1nc(C)c(Cl)c(C)c1C#N | > 100 | 5.51 | < 4.90
25 | CCOC(=O)C(=O)N1c2ccc(OC)cc2-c2c(ssc2=S)C1(C)C | > 100 | 8.61 | 8.50
26 | O=C(NC(c1ccccc1)c1ccccc1)N(Cc1ccccc1)CC(O)CN(CCN1CCOCC1)S(=O)(=O)Cc1ccccc1 (stereo not drawn) | > 6.82 | 6.94 | 6.79
27 | O=C(c1ccc(Cl)cc1Cl)N1CCCC(C(F)(F)F)C1 (stereo not drawn) | > 100 | 6.18 | 5.85
28 | O=C(Nc1ccc(-n2cccn2)cc1)C1CCN(CC=Cc2ccccc2)CC1 | > 99.8 | 6.05 | 6.46
29 | CCC(c1nc2ccccc2c(=O)n1-c1ccc(F)cc1)N(CCc1ccccc1)C(=O)COc1ccccc1 (stereo not drawn) | > 10 | 5.99 | 5.94
30 | Nc1nc(N)c2cc(S(=O)(=O)N3CCCCC3)ccc2n1 | 2.67 | 7.70 | < 5.90
31 | COc1ccc(OC)c(-c2ccc(C(=O)N3CCN(CC=Cc4ccccc4)CC3)c(N(C)C)n2)c1 | 32.8 | 7.02 | 6.84
32 | CCOc1ccc(C2C(C(=O)OCCc3ccccc3)=C(C)NC3=C2C(=O)CC(C)(C)C3)cc1 (stereo not drawn) | > 100 | 4.97 | 5.53
33 | Cc1c2cnn(CC(=O)O)c(=O)c2c(C)n1Cc1cccc(Cl)c1 | > 100 | < 4.90 | 6.10
34 | O=S(=O)(c1ccccc1)N1CCN(CC2CNCCO2)CC1 (stereo not drawn) | 3.22 | 6.12 | 6.48
35 | COc1nc(NC(=N)N)nc2ccc(C)cc12 | 58 | 6.06 | 6.22
36 | Cc1ccc2ccc(C(Nc3ccccn3)c3ccc(Br)cc3)c(O)c2n1 (stereo not drawn) | > 100 | 5.91 | 6.10
